The text below walks through data of patent publication US10752624B2, “Kinase inhibitors” (Origenis GmbH, priority 2012, dated 2020).

The structures appear in SMILES notation.

What is called IC50 is the concentration that inhibits the measured activity by half.

In one test the target is T1, SYK kinase (Homo sapiens, UniProt P43405).
T1 construct: purchased Invitrogen, Carlsbad
Description: SYK Assay (OMNIA Kinase Assay, SOX peptide fluorescence). In kind it is biochemical. To be noted: 1 mM ATP, 10 μM Omnia Peptide Substrate Tyr 7, 30° C., readings for 30 minutes; read-out: SYK Activities: IC50. Summed up:
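The reaction was run at 30 °C with 1 mM ATP, 0.2 mM DTT and 10 μM Omnia Tyr 7 peptide (final) and started by adding SYK. Chelation-enhanced SOX fluorescence (ex 360/em 485 nm) was read every 30 s for 30 min. Reaction velocity versus inhibitor concentration was fitted sigmoidally for IC50.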

Another test concerns the target LRRK2 (Homo sapiens, UniProt Q5S007). Description: LRRK2-LRRK2 G2019S-Assay (LanthaScreen Eu Kinase Binding Assay). As to conditions: 5 nM LRRK2, 10 nM tracer 236, 2 nM EU-Anti-GST antibody, 1 h at RT; read-out: LRRK2 Activities: IC50. Summed up: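 Compound competition with Alexa Fluor 647 tracer 236 (10 nM) was measured after 1 h at room temperature, using 5 nM LRRK2 (wild type or mutant) bound to 2 nM Eu-anti-GST antibody. IC50 was derived from the acceptor/donor (665/615 nm) ratio using a variable-slope dose-response fit.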
(In general: In TR-FRET formats the signal depends on donor and acceptor labels being close together.)

LRRK2, sequence (Q5S007 970-2527 limits assumed): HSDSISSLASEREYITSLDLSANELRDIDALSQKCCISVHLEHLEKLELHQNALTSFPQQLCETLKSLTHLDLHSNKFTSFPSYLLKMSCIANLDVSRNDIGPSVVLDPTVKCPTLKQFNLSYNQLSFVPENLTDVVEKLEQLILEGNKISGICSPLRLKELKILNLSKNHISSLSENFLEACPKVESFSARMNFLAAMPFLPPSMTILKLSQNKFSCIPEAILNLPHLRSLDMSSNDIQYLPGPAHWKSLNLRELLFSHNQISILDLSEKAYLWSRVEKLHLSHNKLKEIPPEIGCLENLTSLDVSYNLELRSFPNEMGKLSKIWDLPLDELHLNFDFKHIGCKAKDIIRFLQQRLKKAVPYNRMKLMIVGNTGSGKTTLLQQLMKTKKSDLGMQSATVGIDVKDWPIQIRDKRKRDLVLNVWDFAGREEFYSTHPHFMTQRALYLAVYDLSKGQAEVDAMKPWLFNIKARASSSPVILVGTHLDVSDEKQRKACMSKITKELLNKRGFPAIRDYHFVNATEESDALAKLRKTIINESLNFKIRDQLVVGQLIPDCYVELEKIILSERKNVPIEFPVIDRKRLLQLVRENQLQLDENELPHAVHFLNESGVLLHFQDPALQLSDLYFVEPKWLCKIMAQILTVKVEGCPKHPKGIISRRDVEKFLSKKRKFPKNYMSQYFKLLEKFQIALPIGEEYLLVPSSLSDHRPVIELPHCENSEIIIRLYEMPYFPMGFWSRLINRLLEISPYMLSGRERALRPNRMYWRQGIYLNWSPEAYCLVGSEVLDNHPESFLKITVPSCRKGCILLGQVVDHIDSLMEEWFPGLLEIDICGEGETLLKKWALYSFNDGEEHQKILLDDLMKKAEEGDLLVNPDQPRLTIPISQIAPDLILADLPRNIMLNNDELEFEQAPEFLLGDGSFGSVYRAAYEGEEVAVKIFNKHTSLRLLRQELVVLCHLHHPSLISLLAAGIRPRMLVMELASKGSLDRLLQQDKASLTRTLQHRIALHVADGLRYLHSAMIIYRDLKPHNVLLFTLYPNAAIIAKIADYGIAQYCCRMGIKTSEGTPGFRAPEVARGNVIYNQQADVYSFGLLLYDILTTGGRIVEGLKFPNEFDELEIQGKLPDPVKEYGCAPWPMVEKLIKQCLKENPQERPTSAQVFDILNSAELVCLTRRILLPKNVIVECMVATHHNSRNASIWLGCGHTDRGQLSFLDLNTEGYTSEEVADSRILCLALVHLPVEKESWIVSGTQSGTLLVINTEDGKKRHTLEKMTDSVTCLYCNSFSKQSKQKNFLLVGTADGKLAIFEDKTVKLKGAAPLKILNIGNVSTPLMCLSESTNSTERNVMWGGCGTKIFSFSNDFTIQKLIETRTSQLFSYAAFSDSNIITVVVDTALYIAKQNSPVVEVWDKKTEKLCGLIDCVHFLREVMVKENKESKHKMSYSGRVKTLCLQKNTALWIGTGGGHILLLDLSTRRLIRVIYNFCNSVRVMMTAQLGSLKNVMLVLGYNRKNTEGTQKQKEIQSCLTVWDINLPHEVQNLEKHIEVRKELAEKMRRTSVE

For the compound `COc1ccc2nc(Nc3ccc(C(=O)N4CCC(N5CCN(C)CC5)CC4)cc3)c3n[nH]cc3c2c1` [Example 6, (4-((8-methoxy-2H-pyrazolo[3,4-c]quinolin-4-yl)amino)phenyl)(4-(4-methylpiperazin-1-yl)piperidin-1-yl)methanone], the IC50 fell in the range of 100 to 1000 nM at SYK kinase and 10 to 100 nM at LRRK2.
With `COc1cccc2nc(Nc3cnn(C4CCNCC4)c3)c3[nH]ncc3c12` [Example 236, 9-methoxy-N-(1-(piperidin-4-yl)-1H-pyrazol-4-yl)-3H-pyrazolo[3,4-c]quinolin-4-amine], the IC50 was 10 to 100 nM on SYK kinase and under 10 nM at LRRK2.
For `COCCCn1cc(Nc2nc3ccc(OC)cc3c3cn[nH]c23)cn1` [Example 287, 8-methoxy-N-(1-(3-methoxypropyl)-1H-pyrazol-4-yl)-3H-pyrazolo[3,4-c]quinolin-4-amine], the values for the IC50 on SYK kinase and at LRRK2 were 10 to 100 nM and under 10 nM, respectively.
Taken in the same sequence, the figures for `COc1cc(OC)c2nc(Nc3ccc(N4CCOCC4)cc3)c3[nH]ncc3c2c1` [Example 288, 6,8-dimethoxy-N-(4-morpholinophenyl)-3H-pyrazolo[3,4-c]quinolin-4-amine] were 100 to 1000 nM and 10 to 100 nM.
Taken in the same sequence, the figures for `CS(=O)(=O)c1cccc2nc(Nc3cnn(C4CCOCC4)c3)c3[nH]ncc3c12` [Example 108, 9-(methylsulfonyl)-N-(1-(tetrahydro-2H-pyran-4-yl)-1H-pyrazol-4-yl)-3H-pyrazolo[3,4-c]quinolin-4-amine] were 100 to 1000 nM and 10 to 100 nM.
For `CS(=O)(=O)c1ccc2nc(Nc3ccc(O)cc3)c3n[nH]cc3c2c1` [Example 349, 4-((8-(methylsulfonyl)-2H-pyrazolo[3,4-c]quinolin-4-yl)amino)phenol] the same measures were under 10 nM and 10 to 100 nM.
`CN1CCN(C(=O)c2ccc(Nc3nc4ccc(S(C)(=O)=O)cc4c4cn[nH]c34)cc2)CC1` [Example 65, (4-methylpiperazin-1-yl)(4-((8-(methylsulfonyl)-3H-pyrazolo[3,4-c]quinolin-4-yl)amino)phenyl)methanone]: the IC50 at SYK kinase and on LRRK2 was 10 to 100 nM throughout.
Regarding `Fc1cccc2nc(Nc3ccc(N4CCN(C5CC5)CC4)cc3)c3[nH]ncc3c12` [Example 10, N-(4-(4-cyclopropylpiperazin-1-yl)phenyl)-9-fluoro-3H-pyrazolo[3,4-c]quinolin-4-amine], the IC50 on SYK kinase and on LRRK2 was 100 to 1000 nM throughout.
With `CS(=O)(=O)c1ccc2nc(Nc3ccc(C(=O)N4CCOCC4)c(F)c3)c3[nH]ncc3c2c1` [Example 175, (2-fluoro-4-((8-(methylsulfonyl)-3H-pyrazolo[3,4-c]quinolin-4-yl)amino)phenyl)(morpholino)methanone], the IC50 was in the range of 100 to 1000 nM at SYK kinase and 10 to 100 nM at LRRK2.
Taken in the same sequence, the figures for `CSc1ccc2nc(Nc3ccc4c(c3)CN(C)C4)c3[nH]ncc3c2c1` [Example 49, N-(2-methylisoindolin-5-yl)-8-(methylthio)-3H-pyrazolo[3,4-c]quinolin-4-amine] were 100 to 1000 nM and 10 to 100 nM.
